Assays:
hA2AAR = target: T1, hA2AAR (Homo sapiens, UniProt P29274); experiment: Radioligand binding at human A2A AR ([3H]CGS21680, membranes of HEK-293 cells); conditions: for Ki / % inhibition, A2A: [3H]37, HEK293 cells; for Ki: read-out: Affinity (Ki, nM), A2A; for % inhibition, A2A: inhibition of radioligand binding at 10 μM
T1 construct: expressed in transfected cells
In short: (§1)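 Membranes from CHO (hA1, hA3) or HEK-293 (hA2A) cells were pretreated with adenosine deaminase and incubated 60 min at 25° C in pH 7.5 Tris/10 mM MgCl2. Radioligands were A1 [3H]NECA 3.5 nM, A2A [3H]CGS21680 10 nM and A3 [125I]I-AB-MECA 0.34 nM. Bound ligand was filtered and Ki derived.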

human A3AR = target: T2, human A3AR (Homo sapiens, UniProt P0DMS8); experiment: Cyclic AMP accumulation assay: inhibition of forskolin-stimulated cyclic AMP production in AR-transfected CHO cells; assay type: cell-based; conditions: for % Inhibition of cAMP formation at hA3 AR: at 10 μM, in comparison to the maximal effect of full agonist NECA at 10 μM
T2 construct: expressed in transfected cells
T2 sequence (P0DMS8 1-318): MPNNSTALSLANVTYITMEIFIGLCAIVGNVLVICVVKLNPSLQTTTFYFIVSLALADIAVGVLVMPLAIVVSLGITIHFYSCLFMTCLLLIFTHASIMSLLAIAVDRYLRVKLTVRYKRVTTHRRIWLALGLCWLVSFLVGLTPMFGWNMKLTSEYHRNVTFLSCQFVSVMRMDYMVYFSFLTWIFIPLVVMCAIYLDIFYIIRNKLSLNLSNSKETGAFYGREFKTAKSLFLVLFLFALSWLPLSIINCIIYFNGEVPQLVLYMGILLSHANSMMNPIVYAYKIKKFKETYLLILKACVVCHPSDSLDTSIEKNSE
Description: Intracellular cyclic AMP levels were measured with a competitive protein binding method. […] CHO cells that expressed the recombinant human A3AR were harvested by trypsinization. After centrifugation and resuspended in medium, cells were planted in 24-well plates in 1.0 mL medium. After 24 h, the medium was removed and cells were washed three times with 1 mL DMEM, containing 50 mM HEPES, pH 7.4. […] After 45 min forskolin (10 μM) was added to the medium, and incubation was continued for an additional 15 min. […] The cell lysate was resuspended and stored at −20° C. For determination of cyclic AMP production, protein kinase A (PKA) was incubated with [^3H]cyclic AMP (2 nM) in K2HPO4/EDTA buffer (K2HPO4, 150 mM; EDTA, 10 mM), 20 μL of the cell lysate, and 30 μL 0.1 M HCl or 50 μL of cyclic AMP solution (0-16 pmol/200 μL for standard curve). Bound radioactivity was separated by rapid filtration through Whatman GF/C filters and washed once with cold buffer. Bound radioactivity was measured by liquid scintillation spectrometry.
Bound radioactivity was separated by rapid filtration through Whatman GF/C filters and washed the filters once with cold buffer. Bound radioactivity was measured with liquid scintillation spectrometry.

human A1 AR = target: T3, human A1 AR (Homo sapiens, UniProt P30542); experiment: Radioligand binding at human A1 AR ([3H]NECA, membranes of CHO cells); conditions: for % inhibition, A1: inhibition of radioligand binding at 10 μM, [3H]36, CHO cells
T3 construct: expressed in transfected cells
T3 sequence (P30542 1-326): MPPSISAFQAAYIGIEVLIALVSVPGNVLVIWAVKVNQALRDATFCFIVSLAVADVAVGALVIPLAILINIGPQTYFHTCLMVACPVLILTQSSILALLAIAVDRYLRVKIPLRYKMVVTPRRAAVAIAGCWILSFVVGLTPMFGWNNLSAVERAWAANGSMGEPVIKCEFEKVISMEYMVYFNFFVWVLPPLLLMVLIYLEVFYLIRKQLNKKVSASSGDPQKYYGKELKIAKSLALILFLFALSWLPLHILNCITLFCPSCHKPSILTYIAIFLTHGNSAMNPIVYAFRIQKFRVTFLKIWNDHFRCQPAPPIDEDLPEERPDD
In short: as §1

T1 sequence (P29274 whole entry): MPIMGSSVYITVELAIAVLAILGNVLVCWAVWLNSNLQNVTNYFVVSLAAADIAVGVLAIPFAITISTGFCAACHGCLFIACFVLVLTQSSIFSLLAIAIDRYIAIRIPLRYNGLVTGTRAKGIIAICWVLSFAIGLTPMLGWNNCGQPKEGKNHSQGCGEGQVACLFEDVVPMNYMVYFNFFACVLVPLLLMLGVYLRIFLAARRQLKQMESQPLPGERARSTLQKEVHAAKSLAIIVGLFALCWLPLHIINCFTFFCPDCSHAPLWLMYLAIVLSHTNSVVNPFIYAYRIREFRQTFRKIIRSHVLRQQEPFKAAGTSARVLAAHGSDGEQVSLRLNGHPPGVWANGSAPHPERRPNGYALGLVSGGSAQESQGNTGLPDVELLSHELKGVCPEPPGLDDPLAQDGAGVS

Compound	Ki (hA2AAR) [nM]	% Inhibition of cAMP formation at hA3 AR (human A3AR) [%]	% Inhibition of cAMP accumulation at the hA3AR (human A3AR; concentration 10 μM, in comparison to full agonist NECA at 1 μM) [%]	inhibition at 10 µM (human A1 AR) [%]	inhibition at 10 µM (hA2AAR) [%]	% inhibition, A1 (human A1 AR)	% inhibition, A2A (hA2AAR)
C#CCCCCC#Cc1nc(NCc2cccc(Cl)c2)c2ncn(C3C(O)C(O)C4(C(=O)NC)CC34)c2n1 (stereo not drawn) [Compound 9, (1′S, 2′R, 3′S, 4′S, 5′S)-4′-[6-(3-Chlorobenzylamino)-2-(1,7-octadiynyl)-9H-purin-9-yl]-2′,3′-dihydroxybicyclo[3.1.0]hexane-1′-carboxylic acid N-methylamide]	7040 ± 1430	60.2 ± 17.0	60.2 ± 17.0				
CNC(=O)[C@@]12C[C@@H]1[C@@H](n1cnc3c(NCc4cccc(Cl)c4)nc(C#CCCCCc4cn(-c5ccc(F)c([N+](=O)[O-])c5)nn4)nc31)[C@H](O)[C@@H]2O [Compound 11]	6730 ± 280	116 ± 22		8			
CNC(=O)[C@@]12C[C@@H]1[C@@H](n1cnc3c(NCc4cccc(Cl)c4)nc(C#CCCCCc4cn(-c5ccc(N)cc5)nn4)nc31)[C@H](O)[C@@H]2O [Compound 12, (1S,2R,3S,4R,5S)-4′-(6-(3-Chlorobenzylamino)-2-(6-(1-(4-amino-phenyl)-1H-1,2,3-triazol-4-yl)hex-1-ynyl)-9H-purin-9-yl)-2′,3′-dihydroxybicyclo[3.1.0]hexane-1′-carboxylic acid N-methylamide]	5490 ± 1150	44.3 ± 2.4		3			
CNC(=O)[C@@]12C[C@@H]1[C@@H](n1cnc3c(NCc4cccc(Cl)c4)nc(C#CCCCCc4cn(-c5ccc(C(=O)O)cc5)nn4)nc31)[C@H](O)[C@@H]2O [Compound 13, (1S,2R,3S,4R,5S)-4′-(6-(3-Chlorobenzylamino)-2-(6-(1-(4-carboxyl-phenyl)-1H-1,2,3-triazol-4-yl)hex-1-ynyl)-9H-purin-9-yl)-2′,3′-dihydroxybicyclo[3.1.0]hexane-1′-carboxylic acid N-methylamide]		83.4 ± 13.1		0	40		
CNC(=O)[C@@]12C[C@@H]1[C@@H](n1cnc3c(NCc4cccc(Cl)c4)nc(C#CCCCCc4cn(-c5ccc(C(=O)CBr)cc5)nn4)nc31)[C@H](O)[C@@H]2O [Compound 14, (1S,2R,3S,4R,5S)-6-(3-Chlorobenzylamino)-4-(2-(6-(4-(2-bromoacetyl)phenyl)-1H-1,2,3-triazol-4-yphex-1-ynyl)-9H-purin-9-yl)-2′,3′-dihydroxybicyclo[3.1.0]hexane-1′-carboxylic acid N-methylamide]	5740 ± 730	109 ± 12		12			
CNC(=O)[C@@]12C[C@@H]1[C@@H](n1cnc3c(NCc4cccc(Cl)c4)nc(C#CCCCCc4cn(CCNC(C)=O)nn4)nc31)[C@H](O)[C@@H]2O [Compound 15, (1S,2R,3S,4R,5S)-6-(3-Chlorobenzylamino)-(2-(6-(1-(4-acetamidoethyl)-1H-1,2,3-triazol-4-yl)hex-1-ynyl)-9H-purin-9-yl)-2′,3′-dihydroxybicyclo[3.1.0]hexane-1′-carboxylic acid N-methylamide]	2440 ± 320	93.6 ± 17.7		12			
CNC(=O)[C@@]12C[C@@H]1[C@@H](n1cnc3c(NCc4cccc(Cl)c4)nc(C#CCCCCc4cn(CCCCN)nn4)nc31)[C@H](O)[C@@H]2O [Compound 16, (1S,2R,3S,4R,5S)-6-(3-Chlorobenzylamino)-(2-(6-(1-(4-aminobutyl)-1H-1,2,3-triazol-4-yl)hex-1-ynyl)-9H-purin-9-yl)-2′,3′-dihydroxybicyclo[3.1.0]hexane-1′-carboxylic acid N-methylamide]	1630 ± 350	64.4 ± 12.4		13			
CNC(=O)[C@@]12C[C@@H]1[C@@H](n1cnc3c(NCc4cccc(Cl)c4)nc(C#CCCCCc4cn(CCCCNC(C)=O)nn4)nc31)[C@H](O)[C@@H]2O [Compound 17, (1S,2R,3S,4R,5S)-6-(3-Chlorobenzylamino)-(2-(6-(1-(4-acetamidobutyl)-1H-1,2,3-triazol-4-yl)hex-1-ynyl)-9H-purin-9-yl)-2′,3′-dihydroxybicyclo[3.1.0]hexane-1′-carboxylic acid N-methylamide]	7240 ± 510	59.7 ± 19.2		17			
CNC(=O)[C@@]12C[C@@H]1[C@@H](n1cnc3c(NCc4cccc(Cl)c4)nc(-c4nnn(-c5ccc(N=C=S)cc5)c4CCCCc4cn(-c5ccc(N=C=S)cc5)nn4)nc31)[C@H](O)[C@@H]2O [Compound 25, (1S,2R,3S,4R,5S)-6-(3-Chlorobenzylamino)-(2-(1,6-bis(4-isothiocyante-phenyl)-1H-bis(1,2,3-triazol-4-yl)hex-1-ynyl)-9H-purin-9-yl)-2′,3′-dihydroxybicyclo[3.1.0]hexane-1′-carboxylic acid N-methylamide]		83.6 ± 7.2		4	40		

The next lines start with the values.

Ki (hA2AAR) [nM]	% Inhibition of cAMP formation at hA3 AR (human A3AR) [%]	% Inhibition of cAMP accumulation at the hA3AR (human A3AR; concentration 10 μM, in comparison to full agonist NECA at 1 μM) [%]	inhibition at 10 µM (human A1 AR) [%]	inhibition at 10 µM (hA2AAR) [%]	% inhibition, A1 (human A1 AR)	% inhibition, A2A (hA2AAR)	Compound
3280 ± 700	27.8 ± 17.4		22				CNC(=O)[C@@]12C[C@@H]1[C@@H](n1cnc3c(NCc4cccc(Cl)c4)nc(C#CCCCCc4cn(C56CC7CC(CC(C7)C5)C6)nn4)nc31)[C@H](O)[C@@H]2O [Compound 18, (1S,2R,3S,4R,5S)-6-(3-Chlorobenzylamino)-(2-(6-(1-(adamantyl)-1H-1,2,3-triazol-4-yl)hex-1-ynyl)-9H-purin-9-yl)-2′,3′-dihydroxybicyclo[3.1.0]hexane-1′-carboxylic acid N-methylamide]
	75.9 ± 16.5		15	49			CNC(=O)[C@@]12C[C@@H]1[C@@H](n1cnc3c(NCc4cccc(Cl)c4)nc(C#CCCCCc4cn(Cc5ccc(-n6sccc6=O)cc5)nn4)nc31)[C@H](O)[C@@H]2O [Compound 19, (1S,2R,3S,4R,5S)-6-(3-Chlorobenzylamino)-(2-(1-(4-3-oxoisothiazol-2(3H)-yl)benzyl-1H-1,2,3-triazol-4-yphex-1-ynyl)-9H-purin-9-yl)-2′,3′-dihydroxybicyclo[3.1.0]hexane-β-carboxylic acid N-methylamide]
	55.6 ± 12.5		0	27			CNC(=O)[C@@]12C[C@@H]1[C@@H](n1cnc3c(NCc4cccc(Cl)c4)nc(C#CCCCCc4cn(CCCCCCNC(=O)CCCC[C@@H]5SC[C@@H]6NC(=O)N[C@@H]65)nn4)nc31)[C@H](O)[C@@H]2O [Compound 20, (1S,2R,3S,4R,5S)-6-(3-Chlorobenzylamino)-(2-(6-(1-(6-(5-(3aS,4S,6aR)-oxohexahydro-1H-thieno[3,4-d]imidazol-4-yl)pentanamido)hexyl-1H-1,2,3-triazol-4-yl)hex-1-ynyl)-9H-purin-9-yl)-2′,3′-dihydroxybicyclo[3.1.0]hexane-1′-carboxylic acid N-methylamide]
	41.8 ± 11.3				(0 ± 0%)	(19 ± 5%)	CNC(=O)[C@@]12C[C@@H]1[C@@H](n1cnc3c(NCc4cccc(Cl)c4)nc(C#CCCCCc4cn(CCCCCCC(=O)NCCCCCCNC(=O)CCCC[C@@H]5SC[C@@H]6NC(=O)N[C@@H]65)nn4)nc31)[C@H](O)[C@@H]2O [Compound 21]
	37.8 ± 14.6				(0 ± 0%)	(23 ± 5%)	CNC(=O)[C@@]12C[C@@H]1[C@@H](n1cnc3c(NCc4cccc(Cl)c4)nc(C#CCCCCc4cn(CCCCCCNC(=O)c5ccc(-c6c7ccc(=N)c(S(=O)(=O)O)c-7oc7c(S(=O)(=O)O)c(N)ccc67)c(C(=O)O)c5)nn4)nc31)[C@H](O)[C@@H]2O [Compound 23]

Reference: patent publication US8518957B2, “Methanocarba adenosine derivatives, pharmaceutical compositions, and method of reducing intraocular pressure” (The United States of America, as represented by the …, priority 2009, dated 2013)
